Experimental data published in PMC5904165, “Insight into the cold adaptation and hemicellulose utilization of Cladosporium neopsychrotolerans from genome analysis and biochemical characterization” (Scientific Reports, 2018).
pKi: −log10 of the molar value.

What was measured:
[1] = test system: T1, Xyl43A; assay: p-nitrophenol release, Michaelis-Menten fit; type: biochemical, Cladosporium neopsychrotolerans; conditions: 35 °C (optimum), optimal pH; 1-10 mM pNPX used, so the table's unit mg/mL may be doubtful
T1 construct: intracellular enzyme
Text: p-nitrophenol release, Michaelis-Menten fit on Xyl43A

[2] = biological target: T1, Xyl43A; assay: inhibition of pNPX hydrolysis, Dixon plot; type: biochemical, Cladosporium neopsychrotolerans; conditions: pNPX substrate, McIlvaine buffer pH 6.8, room temperature, 10 min; mode not stated

Row | SMILES | Xyl43A / 35 °C (Topt) [1] [mg/mL] | pKi [2]
1 | O=[N+]([O-])c1ccc(O[C@@H]2OC[C@@H](O)[C@H](O)[C@H]2O)cc1 [pNPX] | 2.73 ± 0.37 | –
2 | OC1OC[C@@H](O)[C@H](O)[C@H]1O (stereo partly drawn) [D-xylose] | – | 1.36
